# Assay results from US20240360113A1, “AMINOARYL-INTEGRIN AGONISTS COMPOUNDS” (Texas Heart Institute, priority 2021, published 2024).
# Columns and labels:
# α4β1/VCAM-1 = molecular target: T1, α4β1/VCAM-1 (Homo sapiens, UniProt P05556+P13612); assay: Static cell adhesion assay, Jurkat cells on VCAM-1 (VLA-4 agonist activity); type: cell-based; details: EC50 relative to THI0349 (average 11 uM) run on the same plate; Jurkat cells, 50% FBS
# T1 construct: The Jurkat (VCAM-1 assays) and HSB (ICAM-1 assays) cell lines were obtained from American Type Culture Collection; endogenous in cells; host or cells: Jurkat (ATCC)
# Experimental: (§1) For in vitro cell adhesion assays, compounds were dissolved in DMSO to make a series of stock solutions such that a 1:100 dilution in assay buffer would yield the desired final working concentrations in 1% DMSO (vehicle). Human VCAM-1 and ICAM-1 were purchased from R&D Systems (Minneapolis, MN). The Jurkat (VCAM-1 assays) and HSB (ICAM-1 assays) cell lines were obtained from American Type Culture Collection (Manassas, VA) and were maintained in recommended culture media.
# (§2) Assays were performed as previously described in Vanderslice et al., (2010), Biochem Biophys Res Commun 400, 619-624; and Vanderslice et al., (2013) J Biol Chem 288, 19414-19428. VCAM-1 or ICAM-1 ligand in 50 μL of 50 mM Tris-HCl (pH 7.4), 150 mM NaCl, (TBS) was added to wells of a 96-well plate and allowed to coat overnight at 4° C. To maximize the window to evaluate agonist activity, a sub-optimal coating concentration of ligand was used, typically 0.5 and 5 μg/mL in 50 μL TBS for VCAM-1 and ICAM-1 respectively. This ligand concentration corresponded approximately to that which would yield <5% adhesion as determined by dose-response curves. Briefly, 2×10^6 cells were labeled for 30 minutes with calcein-AM (Molecular Probes), washed, resuspended in binding buffer, and added to triplicate wells of ligand-coated plates (2×10^5 cells/well) that had been blocked with 2% BSA. After a 30-minute incubation at 37° C., the plates were washed 3 times with binding buffer, the adherent cells were lysed, and fluorescence was measured on a Tecan Safire^2 plate reader. The binding buffer was PBS with 1 mM MgCl2, 50% FBS for α4β1/VCAM-1 assays and PBS with 2 mM MgCl2, 5 mM EGTA, 50% FBS for αLβ2/ICAM-1 assays. EC50 is defined as the concentration of compound required to achieve 50% of the maximal response.
# αLβ2/ICAM-1 = molecular target: T2, αLβ2/ICAM-1 (Homo sapiens, UniProt P05107+P20701); assay: Static cell adhesion assay, HSB cells on ICAM-1 (LFA-1; LAD); type: cell-based; details: RFU of compound / RFU of THI0349, both at the same concentration
# T2 construct: The Jurkat (VCAM-1 assays) and HSB (ICAM-1 assays) cell lines were obtained from American Type Culture Collection; endogenous in cells; host or cells: HSB (ATCC)
# Experimental: as §1, §2
# In relation to LAD (Leukocyte Adhesion Deficiency), LFA-1 ratios are determined by dividing the relative fluorescence units (RFU) of each compound at a concentration of 3 μM over that of the reference standard of THI0349, also at 3 μM, (RFU Compound/RFU of THI0349). Log Ps were calculated by either Chemdraw® version 12 (CambridgeSoft) or ACD/Chemsketch® (ACD/Labs).
# T1 sequence (P13612 34-1032): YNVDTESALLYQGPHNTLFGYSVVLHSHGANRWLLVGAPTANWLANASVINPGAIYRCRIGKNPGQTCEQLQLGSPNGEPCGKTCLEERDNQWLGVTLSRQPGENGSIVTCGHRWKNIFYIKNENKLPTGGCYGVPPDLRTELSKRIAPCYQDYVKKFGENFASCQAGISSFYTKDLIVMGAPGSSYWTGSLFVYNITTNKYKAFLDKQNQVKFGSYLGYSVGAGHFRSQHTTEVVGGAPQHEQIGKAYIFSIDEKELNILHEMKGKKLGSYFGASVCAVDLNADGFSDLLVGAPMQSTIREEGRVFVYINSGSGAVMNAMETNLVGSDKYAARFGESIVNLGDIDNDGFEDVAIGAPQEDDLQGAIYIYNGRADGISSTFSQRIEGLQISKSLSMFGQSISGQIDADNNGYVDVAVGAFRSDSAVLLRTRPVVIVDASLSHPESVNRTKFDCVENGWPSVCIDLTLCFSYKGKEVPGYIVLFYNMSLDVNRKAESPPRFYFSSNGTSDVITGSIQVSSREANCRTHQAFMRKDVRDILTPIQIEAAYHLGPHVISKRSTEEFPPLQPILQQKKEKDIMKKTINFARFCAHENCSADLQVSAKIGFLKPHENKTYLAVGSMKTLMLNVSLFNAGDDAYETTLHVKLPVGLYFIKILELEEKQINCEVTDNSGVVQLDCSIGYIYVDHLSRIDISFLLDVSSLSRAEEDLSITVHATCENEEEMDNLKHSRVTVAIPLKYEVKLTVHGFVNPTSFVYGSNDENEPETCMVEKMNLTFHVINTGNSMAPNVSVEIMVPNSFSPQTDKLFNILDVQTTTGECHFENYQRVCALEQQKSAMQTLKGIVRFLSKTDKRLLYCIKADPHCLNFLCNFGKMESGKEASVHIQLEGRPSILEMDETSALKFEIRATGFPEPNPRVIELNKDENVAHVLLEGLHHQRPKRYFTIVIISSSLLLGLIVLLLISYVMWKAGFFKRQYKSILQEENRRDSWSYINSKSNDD
# T1 sequence (P05556 21-798): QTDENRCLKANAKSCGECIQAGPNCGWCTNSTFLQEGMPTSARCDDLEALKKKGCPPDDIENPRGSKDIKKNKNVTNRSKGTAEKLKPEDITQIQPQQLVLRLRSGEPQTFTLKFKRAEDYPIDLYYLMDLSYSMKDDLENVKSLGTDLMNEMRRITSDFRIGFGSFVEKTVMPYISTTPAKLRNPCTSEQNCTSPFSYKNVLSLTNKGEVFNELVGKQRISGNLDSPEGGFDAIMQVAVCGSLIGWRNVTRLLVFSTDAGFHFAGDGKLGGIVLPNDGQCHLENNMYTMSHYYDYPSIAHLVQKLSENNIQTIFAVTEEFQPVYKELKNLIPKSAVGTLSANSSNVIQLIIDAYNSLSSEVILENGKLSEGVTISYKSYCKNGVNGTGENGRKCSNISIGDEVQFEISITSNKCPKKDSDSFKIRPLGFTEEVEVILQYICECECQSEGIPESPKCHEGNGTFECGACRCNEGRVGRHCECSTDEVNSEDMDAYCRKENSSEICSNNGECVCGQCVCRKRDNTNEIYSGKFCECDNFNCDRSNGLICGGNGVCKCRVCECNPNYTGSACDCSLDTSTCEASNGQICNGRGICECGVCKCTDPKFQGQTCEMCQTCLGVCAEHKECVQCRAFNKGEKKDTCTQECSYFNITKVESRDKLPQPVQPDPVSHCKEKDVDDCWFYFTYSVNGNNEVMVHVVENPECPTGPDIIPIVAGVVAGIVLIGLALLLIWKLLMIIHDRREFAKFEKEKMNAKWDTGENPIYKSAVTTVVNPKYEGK
# T2 sequence (P20701 26-1170): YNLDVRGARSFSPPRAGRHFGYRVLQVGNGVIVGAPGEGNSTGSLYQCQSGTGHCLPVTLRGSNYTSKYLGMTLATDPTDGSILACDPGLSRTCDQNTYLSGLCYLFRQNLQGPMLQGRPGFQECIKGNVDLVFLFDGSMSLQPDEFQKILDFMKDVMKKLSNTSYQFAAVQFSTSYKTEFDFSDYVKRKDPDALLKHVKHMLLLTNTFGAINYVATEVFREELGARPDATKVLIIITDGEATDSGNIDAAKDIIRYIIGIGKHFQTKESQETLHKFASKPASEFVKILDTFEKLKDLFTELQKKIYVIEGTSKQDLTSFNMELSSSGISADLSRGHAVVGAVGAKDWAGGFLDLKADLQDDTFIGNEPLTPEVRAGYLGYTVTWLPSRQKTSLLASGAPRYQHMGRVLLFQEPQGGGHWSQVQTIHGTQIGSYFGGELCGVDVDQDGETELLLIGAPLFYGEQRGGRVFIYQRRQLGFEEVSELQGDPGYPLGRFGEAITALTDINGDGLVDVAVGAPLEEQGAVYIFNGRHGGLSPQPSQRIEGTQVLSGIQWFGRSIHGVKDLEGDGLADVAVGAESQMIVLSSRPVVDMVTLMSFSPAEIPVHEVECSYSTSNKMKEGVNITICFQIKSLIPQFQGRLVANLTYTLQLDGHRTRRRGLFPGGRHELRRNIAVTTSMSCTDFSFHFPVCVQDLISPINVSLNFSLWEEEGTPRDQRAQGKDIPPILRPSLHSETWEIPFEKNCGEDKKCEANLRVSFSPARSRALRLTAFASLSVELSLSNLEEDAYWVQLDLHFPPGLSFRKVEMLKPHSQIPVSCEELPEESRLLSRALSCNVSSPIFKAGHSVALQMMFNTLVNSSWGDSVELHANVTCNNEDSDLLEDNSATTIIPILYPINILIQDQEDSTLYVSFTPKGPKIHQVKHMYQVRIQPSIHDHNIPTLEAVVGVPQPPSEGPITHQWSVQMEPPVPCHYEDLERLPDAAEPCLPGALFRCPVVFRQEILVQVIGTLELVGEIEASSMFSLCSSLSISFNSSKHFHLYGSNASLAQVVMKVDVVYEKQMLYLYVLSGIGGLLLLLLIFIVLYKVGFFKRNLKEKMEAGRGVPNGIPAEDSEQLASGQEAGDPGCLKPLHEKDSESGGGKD
# T2 sequence (P05107 23-769): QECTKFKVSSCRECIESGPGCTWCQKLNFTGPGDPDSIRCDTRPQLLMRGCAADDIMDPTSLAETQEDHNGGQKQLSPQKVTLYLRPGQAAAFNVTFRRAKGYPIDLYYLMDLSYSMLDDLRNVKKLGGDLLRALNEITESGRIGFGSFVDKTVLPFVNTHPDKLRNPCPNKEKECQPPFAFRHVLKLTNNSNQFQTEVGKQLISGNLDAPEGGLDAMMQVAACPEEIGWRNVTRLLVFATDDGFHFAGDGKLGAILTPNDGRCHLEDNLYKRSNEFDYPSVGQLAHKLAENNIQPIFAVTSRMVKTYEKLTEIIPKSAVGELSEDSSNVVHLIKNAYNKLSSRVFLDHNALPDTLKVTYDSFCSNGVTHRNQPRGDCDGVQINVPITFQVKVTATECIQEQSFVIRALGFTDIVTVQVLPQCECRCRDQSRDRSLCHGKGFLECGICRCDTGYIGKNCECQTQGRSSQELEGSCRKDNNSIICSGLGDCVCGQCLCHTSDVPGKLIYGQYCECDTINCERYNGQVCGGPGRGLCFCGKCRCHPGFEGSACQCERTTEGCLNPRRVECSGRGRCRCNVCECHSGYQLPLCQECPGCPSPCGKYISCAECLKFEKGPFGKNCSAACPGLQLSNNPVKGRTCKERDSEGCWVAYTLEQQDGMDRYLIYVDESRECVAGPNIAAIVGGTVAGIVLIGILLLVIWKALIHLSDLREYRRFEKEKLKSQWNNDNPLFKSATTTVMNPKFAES
Structure (SMILES),LAD Raw Fluorescence Units against LFA-1; Dose 3 µM; Ratio of raw counts Compound/THI0349 (αLβ2/ICAM-1),Group against VCAM (α4β1/VCAM-1)
"COc1cccc(CN(Cc2cccc(OC)c2)c2nc(COCCOc3cccc(C#N)c3)cs2)c1 [Compound 50, 3-(2-((2-(bis(3-methoxybenzyl)amino)thiazol-4-yl)methoxy)ethoxy)benzonitrile]",1.2,III (Group III more than five times the EC50 of THI0349)
"COc1cccc(CN(Cc2cccc(OC)c2)c2nc(COCCOc3ccc(N(C)C)cc3)cs2)c1 [Compound 51, 4-((2-(4-(dimethylamino)phenoxy)ethoxy)methyl)-N,N-bis(3-methoxybenzyl)thiazol-2-amine]",1.3,III (Group III more than five times the EC50 of THI0349)
"COc1cccc(CN(Cc2cccc(OC)c2)c2nc(COCCOc3ccccc3)cs2)c1 [Compound 52, N,N-bis(3-methoxybenzyl)-4-((2-phenoxyethoxy)methyl)thiazol-2-amine]",1.2,II (Group II is more than twice that of THI0349 but less than five times THI0349's EC50)
"COc1cccc(CN(Cc2cccc(OC)c2)c2nc(COCCOCCOCc3ccccc3)cs2)c1 [Compound 53, 4-((2-(2-(benzyloxy)ethoxy)ethoxy)methyl)-N,N-bis(3-methoxybenzyl)thiazol-2-amine]",1.06,I (Group I maintains at least the same potency or better up to more than twice that of the EC50 of THI0349 ran on the same plate)
"COc1cccc(CN(Cc2cccc(OC)c2)c2nc(COCCOCCOCc3ccccc3C)cs2)c1 [Compound 54, N,N-bis(3-methoxybenzyl)-4-((2-(2-((2-methylbenzyl)oxy)ethoxy)ethoxy)methyl)thiazol-2-amine]",1.8,I (Group I maintains at least the same potency or better up to more than twice that of the EC50 of THI0349 ran on the same plate)
"COc1cccc(COCCOCCOCc2csc(N(Cc3cccc(OC)c3)Cc3cccc(OC)c3)n2)c1 [Compound 55, N,N-bis(3-methoxybenzyl)-4-((2-(2-((3-methoxybenzyl)oxy)ethoxy)ethoxy)methyl)thiazol-2-amine]",1.1,I (Group I maintains at least the same potency or better up to more than twice that of the EC50 of THI0349 ran on the same plate)
"COc1cccc(CN(Cc2cccc(OC)c2)c2nc(COCCOCCOCc3ccccc3Cl)cs2)c1 [Compound 56, 4-((2-(2-((2-chlorobenzyl)oxy)ethoxy)ethoxy)methyl)-N,N-bis(3-methoxybenzyl)thiazol-2-amine]",1.2,III (Group III more than five times the EC50 of THI0349)
"COc1cccc(COCCOCc2csc(N(Cc3cccc(OC)c3)Cc3cccc(OC)c3)n2)c1 [Compound 57, N,N-bis(3-methoxybenzyl)-4-((2-(3-methoxybenzyloxy)ethoxy)methyl)thiazol-2-amine]",0.25,I (Group I maintains at least the same potency or better up to more than twice that of the EC50 of THI0349 ran on the same plate)
"COc1cccc(CN(Cc2cccc(OC)c2)c2nc(COCCOCc3ccccc3)cs2)c1 [Compound 58, 4-((2-(benzyloxy)ethoxy)methyl)-N,N-bis(3-methoxybenzyl)thiazol-2-amine]",0.48,I (Group I maintains at least the same potency or better up to more than twice that of the EC50 of THI0349 ran on the same plate)
"COc1cccc(CN(Cc2cccc(OC)c2)c2nc(COCCOCc3ccccc3Cl)cs2)c1 [Compound 59, 4-((2-((2-chlorobenzyl)oxy)ethoxy)methyl)-N,N-bis(3-methoxybenzyl)thiazol-2-amine]",1.0,II (Group II is more than twice that of THI0349 but less than five times THI0349's EC50)
"COc1cccc(CN(Cc2cccc(OC)c2)c2nc(COCCOCc3ccccc3C)cs2)c1 [Compound 60, N,N-bis(3-methoxybenzyl)-4-((2-((2-methylbenzyl)oxy)ethoxy)methyl)thiazol-2-amine]",0.92,I (Group I maintains at least the same potency or better up to more than twice that of the EC50 of THI0349 ran on the same plate)
"COc1cccc(CN(Cc2cccc(OC)c2)c2nc(COCCOCCN3CCOCC3)cs2)c1 [Compound 61, N,N-bis(3-methoxybenzyl)-4-((2-(2-morpholinoethoxy)ethoxy)methyl)thiazol-2-amine]",1.9,I (Group I maintains at least the same potency or better up to more than twice that of the EC50 of THI0349 ran on the same plate)

# More lines, main results first:
LAD Raw Fluorescence Units against LFA-1; Dose 3 µM; Ratio of raw counts Compound/THI0349 (αLβ2/ICAM-1),Structure (SMILES),Group against VCAM (α4β1/VCAM-1)
0.37,"COc1cccc(CN(Cc2cccc(OC)c2)c2nc(COCCOCCN3CCCCC3)cs2)c1 [Compound 62, N,N-bis(3-methoxybenzyl)-4-((2-(2-(piperidin-1-yl)ethoxy)ethoxy)methyl)thiazol-2-amine]",I (Group I maintains at least the same potency or better up to more than twice that of the EC50 of THI0349 ran on the same plate)
0.5,"COc1cccc(CN(Cc2cccc(OC)c2)c2nc(COCCOCCN3CCN(C)CC3)cs2)c1 [Compound 63, N,N-bis(3-methoxybenzyl)-4-((2-(2-(4-methylpiperazin-1-yl)ethoxy)ethoxy)methyl)thiazol-2-amine]",III (Group III more than five times the EC50 of THI0349)
0.31,"COc1cccc(CN(Cc2cccc(OC)c2)c2nc(COCCN3CCOCC3)cs2)c1 [Compound 64, N,N-bis(3-methoxybenzyl)-4-((2-morpholinoethoxy)methyl)thiazol-2-amine]",I (Group I maintains at least the same potency or better up to more than twice that of the EC50 of THI0349 ran on the same plate)
0.29,"COc1cccc(CN(Cc2cccc(OC)c2)c2nc(COCCN3CCCCC3)cs2)c1 [Compound 65, N,N-bis(3-methoxybenzyl)-4-((2-(piperidin-1-yl)ethoxy)methyl)thiazol-2-amine]",I (Group I maintains at least the same potency or better up to more than twice that of the EC50 of THI0349 ran on the same plate)
0.27,"COc1cccc(CN(Cc2cccc(OC)c2)c2nc(COCCN3CCN(C)CC3)cs2)c1 [Compound 66, N,N-bis(3-methoxybenzyl)-4-((2-(4-methylpiperazin-1-yl)ethoxy)methyl)thiazol-2-amine]",II (Group II is more than twice that of THI0349 but less than five times THI0349's EC50)
1.2,"COc1cccc(CN(Cc2cccc(OC)c2)c2nc(CN3CCOCC3)cs2)c1 [Compound 67, N,N-bis(3-methoxybenzyl)-4-(morpholinomethyl)thiazol-2-amine]",I (Group I maintains at least the same potency or better up to more than twice that of the EC50 of THI0349 ran on the same plate)
1.6,"COc1cccc(CN(Cc2cccc(OC)c2)c2nc(CN3CCCCC3)cs2)c1 [Compound 68, N,N-bis(3-methoxybenzyl)-4-(piperidin-1-ylmethyl)thiazol-2-amine]",II (Group II is more than twice that of THI0349 but less than five times THI0349's EC50)
0.33,"COc1cccc(CN(Cc2cccc(OC)c2)c2nc(CN3CCN(C)CC3)cs2)c1 [Compound 69, N,N-bis(3-methoxybenzyl)-4-((4-methylpiperazin-1-yl)methyl)thiazol-2-amine]",II (Group II is more than twice that of THI0349 but less than five times THI0349's EC50)
